Data reported in the OPERA property sets (Mansouri et al. 2018).
Values after ≈ are worked out from the molar mass of the structure shown.

Structure (SMILES) | solubility (25 °C) [mM] | other results
Clc1ccccc1 | 4.42 (≈ 498 µg/mL) | –
ClCCl | 153 (≈ 13000 µg/mL) | –
BrC=CBr | 34.7 (≈ 6440 µg/mL) | –
FC(F)F | 58.4 (≈ 4090 µg/mL) | –
ClC(Cl)(Cl)Cl | 5.16 (≈ 793 µg/mL) | –
FC(F)(F)Br | 2.15 (≈ 320 µg/mL) | –
CBr | 160 (≈ 15200 µg/mL) | –
CC(F)F | – | solubility (21 °C): 48.5 mM (≈ 3200 µg/mL)
FC(F)=C(F)F | 1.58 (≈ 158 µg/mL) | –
FC(F)(F)F | 0.214 (≈ 18.8 µg/mL) | –
CI | – | solubility (20 °C): 97.2 mM (≈ 13800 µg/mL)
FC(Cl)Cl | 183 (≈ 18800 µg/mL) | –
CF | – | solubility (20 °C): 667 mM (≈ 22700 µg/mL)
FC(F)Cl | 32 (≈ 2770 µg/mL) | –
C=C(F)F | 197 (≈ 12600 µg/mL) | –
BrC(Br)Br | 13.8 (≈ 3490 µg/mL) | –
FC(F)(F)C(F)(F)Cl | 0.382 (≈ 59 µg/mL) | –
CC(Cl)CCl (stereo not drawn) | 24.8 (≈ 2800 µg/mL) | –
